Measured values from patent US7122214B2, “Drynaria extractions for treating osteoporosis and their extraction process” (priority 2000, dated 2006).

Columns and labels:
Primary Osteoporosis [1] = assay: Clinical test of RDE on primary osteoporosis: ultrasonic bone density of mid-portion of tibia; type: in vivo, human; conditions: for ultrasonic bone density, Age matched (difference value) / ultrasonic bone density, Young adult (difference value): RDE 180 mg po tid (n=16), α-D3 0.5 μg po bid (n=15)
Procedure: (§1) The drugs with the following dosages and contents are used unless additional explanations.
(§2) Extracts in this present invention: capsules of preparation example 1, each capsule contains 0.18 g of effective component. Positive control medicine: α-D3, (synthesized by TEVA PHARMACEUTICALS, Israel, prepared by Sino-US Kunming BARKER NORTON PHARMACEUTICAL CO., LTD), each capsule contains 0.5 μg of effective component)
(§3) Diagnostic criteria: Comprehensive Diagnostic Grades for Primary Osteoporosis, according to the diagnostic criteria established by Specialized Committee of Osteoporosis of Chinese Association of Geriatrics. (cf. Gu-zhi-shu-song-zheng [M], p169–171, LIU Zhonghou eds. Chemical Industrial Press, Guangzhou, 1992)
(§4) According to the diagnostic criteria mentioned above, 70 cases of osteoporosis are randomly divided into treatment group with RDE and control group with α-D3. RDE is administrated 180 mg, per os, tid, for 6 months-2 period of treatment. And α-D3 is administrated 0.5 μg, per os, bid, for 6 months too.
(§5) Bone density of lumbar (L2–L4) and top-femur (collum femoris, trigonal area of femur, trochanteric of femur) is checked respectively by Double-Energy X-ray Bone Density Meter (LUNAR DPX-L DEXA bone densitometer,US). The unit is g/cm^2. And an Ultrasonic Bone Densitometer (model 2000-SYS-220, METRA Co., Israel) is employed to check the bone density of mid-portion of tibia.

[2] = system: Ovariectomized (OVX) rats; assay: Bone density in Ovariectomized (OVX) osteoporosis model in rats; type: in vivo, Wistar rats
Procedure: (§6) Observe the effect of RDE in this invention on both Tretinoin-induced and Ovariectomized (OVX) osteoporosis model in rats.
(§7) RDE was produced according to Example 1 (Per gram extract is equivalent to 66.67 g crude drugs). RDE was dissolved in distilled water to a concentration of 0.47 mg/ml before administration. And administration was conducted via gastric tube. Tretinoin is manufactured by Chongqing Huabang Pharmaceuticals, Ltd. and was suspended to the concentration of 1.5% with distilled water. Control drug α-D3 was manufactured by TEVA PHARMACEUTICALS, Israel, which is solved in distilled water to the concentration of 0.03 μg/ml before using and administrated orally via gastric tube.
(§8) Tretinoin-induced osteoporosis rats: sixty female W istar rats, 16-week-old, mean weight 234.85±15.32 g. Ovariectomized rats: sixty female Wistar rats, 12-week-old, mean weight 183.46±12.45 g. All the animals are obtained from the Experimental Animal Center of Chinese Military Medical Academy.
(§9) Bone Biomechanics Rheometer was manufactured by Stevens Company, Great Britain (model QTS-25). X ray Bone-density-meter was manufactured by Norland Company, USA (model XR-26). The others are all obtained from market.
(§10) 4. Dose Selections and Groups: • (1) Tretinoin-induced group: Sixty rats are randomly allocated to six groups (10 rats per group). Blank group: control animals received PSS/d (physiological saline solution) alone. […]
(§11) The dose administered to each animal is calculated from the individual body weight recorded at the end of each week. […]
(§12) 7. […] Bone biomechanics measurements: three point bending tests of left thighbone of each animal are performed; load-deformation curve is recorded to measure the biomechanics index. […] Bone structural mechanics parameters: breaking load, elastic load, maximum radius, elastic radius, maximum energy absorption; bone material mechanics parameters: firstly calculated the Femoral Section Inertial Moment, then computed the maximum strain, elastic strain, maximum stress, elastic stress and elastic modulus according to the formulae. […]

[3] = system: Ovariectomized (OVX) rats; assay: Bone biomechanics (three point bending of left thighbone) in Ovariectomized (OVX) rats; type: in vivo, Wistar rats
Procedure: Observe the effect of RDE in this invention on both Tretinoin-induced and Ovariectomized (OVX) osteoporosis model in rats. […] RDE was dissolved in distilled water to a concentration of 0.47 mg/ml before administration. And administration was conducted via gastric tube. Tretinoin is manufactured by Chongqing Huabang Pharmaceuticals, Ltd. and was suspended to the concentration of 1.5% with distilled water. Control drug α-D3 was manufactured by TEVA PHARMACEUTICALS, Israel, which is solved in distilled water to the concentration of 0.03 μg/ml before using and administrated orally via gastric tube. Tretinoin-induced osteoporosis rats: sixty female […]-old, mean weight 234.85±15.32 g. Ovariectomized rats: sixty female Wistar rats, 12-week-old, mean weight 183.46±12.45 g. All the animals are obtained from the Experimental Animal Center of Chinese Military Medical Academy. Bone Biomechanics Rheometer was manufactured by Stevens Company, Great Britain (model QTS-25). X ray Bone-density-meter was manufactured by Norland Company, USA (model XR-26). The others are all obtained from market. 4. Dose Selections and Groups: • (1) Tretinoin-induced group: Sixty rats are randomly allocated to six groups (10 rats per group). Blank group: control animals received PSS/d (physiological saline solution) alone. Model group: Tretinoin is given orally 70 mg/kg/d; α-D3 group: both tretinoin and α-D3 are given orally 70 mg/kg/d and 0.002 μg/kg/d respectively; RDE low-dose group: both tretinoin and RDE are given orally 70 mg/kg/d and 54 mg/kg/d respectively; RDE medium-dose group: tretinoin 70 mg/kg/d and RDE 108 mg/kg/d; RDE high-dose group: tretinoin 70 mg/kg/d and RDE 216 mg/kg/d. • (2) Ovariectomized (OVX) rats group: Sixty rats are randomly allocated to six groups (10 rats per group). Blank group is the normal rats. All the other groups are removed amphi-ovaries. Model group received PSS only; α-D3 group: α-D3 is administrated orally 0.002 μg/kg/d; And RDE is administrated orally in the dose of 54, 108, 216 mg/kg/day to OVX rats respectively, corresponding to RDE groups of low-dose, medium-dose and high-dose. The dose administered to each animal is calculated from the individual body weight recorded at the end of each week. OVX rats groups: Both blank and model groups are given the same volume of distilled water orally, All the other groups commenced treatment according to the way mentioned above for 12 weeks after which animals are sacrificed and investigation of Bone Density and Bone-biomechanics are performed. 7. Measurements • 7.1. […] Bone biomechanics measurements: three point bending tests of left thighbone of each animal are performed; load-deformation curve is recorded to measure the biomechanics index. Experimental parameters: span 20 mm, loading velocity 10 mm/min. Bone structural mechanics parameters: breaking load, elastic load, maximum radius, elastic radius, maximum energy absorption; bone material mechanics parameters: firstly calculated the Femoral Section Inertial Moment, then computed the maximum strain, elastic strain, maximum stress, elastic stress and elastic modulus according to the formulae. [Results]

[4] = system: Tretinoin-induced osteoporosis in rats; assay: Bone density in Tretinoin-induced osteoporosis model in rats; type: in vivo, Wistar rats
Procedure: as §6, §7, §8, §9, §10, §11, §12

Primary Osteoporosis [5] = assay: Clinical test of RDE on primary osteoporosis: bone density by double-energy X-ray bone density meter; type: in vivo, human; conditions: for Bone density of collum femoris / Bone density of trigonal area of femur / Bone density of trochanteric of femur / Bone density of lumber (L2–L4): RDE 180 mg po tid, α-D3 0.5 μg po bid; for Bone density of lumber (L2–L4): n=17 per group
Procedure: as §1, §2, §3, §4, §5

[6] = system: Tretinoin-induced osteoporosis in rats; assay: Bone biomechanics (three point bending of left thighbone) in Tretinoin-induced osteoporosis rats; type: in vivo, Wistar rats
Procedure: as §6, §7, §8, §9
4. Dose Selections and Groups: • (1) Tretinoin-induced group: Sixty rats are randomly allocated to six groups (10 rats per group). Blank group: control animals received PSS/d (physiological saline solution) alone. Model group: Tretinoin is given orally 70 mg/kg/d; α-D3 group: both tretinoin and α-D3 are given orally 70 mg/kg/d and 0.002 μg/kg/d respectively; RDE low-dose group: both tretinoin and RDE are given orally 70 mg/kg/d and 54 mg/kg/d respectively; RDE medium-dose group: tretinoin 70 mg/kg/d and RDE 108 mg/kg/d; RDE high-dose group: tretinoin 70 mg/kg/d and RDE 216 mg/kg/d. • (2) Ovariectomized (OVX) rats group: Sixty rats are randomly allocated to six groups (10 rats per group). Blank group is the normal rats. All the other groups are removed amphi-ovaries. Model group received PSS only; α-D3 group: α-D3 is administrated orally 0.002 μg/kg/d; And RDE is administrated orally in the dose of 54, 108, 216 mg/kg/day to OVX rats respectively, corresponding to RDE groups of low-dose, medium-dose and high-dose.
The dose administered to each animal is calculated from the individual body weight recorded at the end of each week.
Tretinoin-induced osteoporosis groups: Blank group received PSS during the course of experiment. The other groups commenced treatment on the same day, designated study Day 1, and once-daily tretinoin orally given for 14 days, after which they stopped administrating tretinoin. Both blank and model groups are given PSS in Day 15, and α-D3 group is given α-D3, RDE groups are given the corresponding dose of RDE orally for 14 days. The final dose is given in the Day 28 before sacrificed. Investigation of Bone Density and Bone-biomechanics are performed in the Day 29.
7. Measurements • 7.1. Bone density measurements are performed on No.2–4 lumbar spines and right thighbone of each animal. • 7.2. Bone biomechanics measurements: three point bending tests of left thighbone of each animal are performed; load-deformation curve is recorded to measure the biomechanics index. Experimental parameters: span 20 mm, loading velocity 10 mm/min. Bone structural mechanics parameters: breaking load, elastic load, maximum radius, elastic radius, maximum energy absorption; bone material mechanics parameters: firstly calculated the Femoral Section Inertial Moment, then computed the maximum strain, elastic strain, maximum stress, elastic stress and elastic modulus according to the formulae. [Results]

[7] = Inventors' investigation of activity of improving osteoporosis (no method given); conditions: no data or method given
[8] = OVX rats, α-D3 0.002 μg/kg/d oral 12 weeks
[9] = α-D3 0.002 μg/kg/d oral 14 days after tretinoin 70 mg/kg/d 14 days

C=C1/C(=C\C=C2/CCC[C@]3(C)[C@@H]([C@H](C)CCCC(C)C)CC[C@@H]23)C[C@@H](O)C[C@@H]1O [α-D3]
ultrasonic bone density, Age matched (difference value) (Primary Osteoporosis [1]; Before-treatment (baseline)): −1.433 ± 0.788 g/cm^2 | ultrasonic bone density, Young adult (difference value) (Primary Osteoporosis [1]; Before-treatment (baseline)): −1.993 ± 0.872 g/cm^2 | Speed sound, change self-compared within group (Primary Osteoporosis [1]; RDE P<0.01, α-D3 P<0.05): increase significantly | ultrasonic bone density, Age matched (difference value) (Primary Osteoporosis [1]; after 3 months treatment): −1.386 ± 0.908 g/cm^2 | ultrasonic bone density, Young adult (difference value) (Primary Osteoporosis [1]; after 3 months treatment): −1.953 ± 1.181 g/cm^2 | ultrasonic bone density, Age matched (difference value) (Primary Osteoporosis [1]; after 6 months treatment): −0.987 ± 1.068 g/cm^2 | ultrasonic bone density, Young adult (difference value) (Primary Osteoporosis [1]; after 6 months treatment): −0.593 ± 1.209 g/cm^2 | femoral bone density compared with model group ([2]; OVX rats (Table 10)): increased obviously | Bone density Lumber spine [2, 8]: 0.13 ± 0.009 g/cm^2 | Bone density thighbone [2, 8]: 0.13 ± 0.009 g/cm^2 | all the bone structural mechanics indicators compared with model group ([3]; OVX rats (Table 12)): increased significantly | Area of bone cortes [3, 8]: 4.13 ± 0.99 | Elastic load [3, 8]: 88.6 ± 12.7 N | Elastic mould [3, 8]: 7992 ± 1132 | Elastic strain (material) [3, 8]: 0.03 ± 0.010 | Elastic stress [3, 8]: 147.2 ± 11.00 N/mm^2 | Maximum energy observation [3, 8]: 520.48 ± 108.44 N-mm^2 | Maximum load [3, 8]: 102.1 ± 2.90 N | Maximum strain (material) [3, 8]: 0.03 ± 0.006 | Maximum strain (structural) [3, 8]: 0.96 ± 0.10 mm | Maximum stress [3, 8]: 221.5 ± 46.50 N/mm^2 | Rigidity coefficient [3, 8]: 27508 ± 8073 | femoral bone density compared with model group ([4]; Tretinoin-induced osteoporosis rats (Table 9)): increased obviously | Bone density Lumber spine [4, 9]: 0.135 ± 0.005 g/cm^2 | Bone density thighbone [4, 9]: 0.137 ± 0.004 g/cm^2 | Bone density of collum femoris (Primary Osteoporosis [5]; Before-treatment (baseline)): 0.748 ± 0.095 g/cm^2 | Bone density of trigonal area of femur (Primary Osteoporosis [5]; Before-treatment (baseline)): 0.582 ± 0.125 g/cm^2 | Bone density of trochanteric of femur (Primary Osteoporosis [5]; Before-treatment (baseline)): 0.606 ± 0.109 g/cm^2 | Bone density of lumber (L2–L4) (Primary Osteoporosis [5]; Before-treatment (baseline)): 0.958 ± 0.180 g/cm^2 | Change of bone density of collum femoris after vs before treatment (Primary Osteoporosis [5]; after 3 and 6 months, within group): no significant difference | Bone density of collum femoris (Primary Osteoporosis [5]; after 3 months treatment): 0.744 ± 0.100 g/cm^2 | Bone density of trigonal area of femur (Primary Osteoporosis [5]; after 3 months treatment): 0.591 ± 0.124 g/cm^2 | Bone density of trochanteric of femur (Primary Osteoporosis [5]; after 3 months treatment): 0.616 ± 0.099 g/cm^2 | Bone density of lumber (L2–L4) (Primary Osteoporosis [5]; after 3 months treatment): 0.954 ± 0.179 g/cm^2 | Change of bone density of lumber (L2–L4) after vs before treatment (Primary Osteoporosis [5]; after 3 or 6 months treatment, within group): no improvement | Bone density of collum femoris (Primary Osteoporosis [5]; after 6 months treatment): 0.744 ± 0.093 g/cm^2 | Bone density of trigonal area of femur (Primary Osteoporosis [5]; after 6 months treatment): 0.581 ± 0.134 g/cm^2 | Bone density of trochanteric of femur (Primary Osteoporosis [5]; after 6 months treatment): 0.616 ± 0.094 g/cm^2 | Bone density of lumber (L2–L4) (Primary Osteoporosis [5]; after 6 months treatment): 0.958 ± 0.145 g/cm^2 | all the bone structural mechanics indicators compared with model group ([6]; Tretinoin-induced osteoporosis rats (Table 11)): increased significantly | Elastic load [6, 9]: 100.40 ± 7.00 N | Elastic strain (material) [6, 9]: 0.03 ± 0.01 | Elastic strain (structural) [6, 9]: 1.01 ± 0.14 mm | Elastic stress [6, 9]: 177.6 ± 51.3 N/mm^2 | Maximum energy observation [6, 9]: 635.73 ± 114.46 N-mm | Maximum load [6, 9]: 103.20 ± 3.40 N | Maximum strain (material) [6, 9]: 0.03 ± 0.009 | Maximum strain (structural) [6, 9]: 0.98 ± 0.14 mm | Maximum stress [6, 9]: 167.2 ± 44.5 N/mm^2 | Rigidity coefficient [6, 9]: 30561 ± 9194 N/mm^2

C[C@@H]1O[C@@H](O[C@H]2[C@H](Oc3cc(O)c4c(c3)O[C@H](c3ccc(O)cc3)CC4=O)O[C@H](CO)[C@@H](O)[C@@H]2O)[C@H](O)[C@H](O)[C@H]1O [naringin]
activity of improving osteoporosis [7]: has the activity of improving osteoporosis | efficiency in improving osteoporosis relative to the active extracts [7]: lower than the active extracts
